Source: patent US7517874B2 (priority 2007, dated 2009)

Columns and labels:
[1] = target: human CB1 receptor (hCB1) (Homo sapiens, UniProt P21554); assay: cell-based; format: cell-based; conditions: for +/− HCB1: agonist or inverse agonist at hCB1
Outline: (§1)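 Readout: LANCE TR-FRET cAMP, back-calculated from a concurrent standard curve and scaled between forskolin-only and forskolin + 1 μM CP55,940 wells. EC50 and intrinsic activity came from four-parameter fits.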

[2] = target: T1, rat CB2 receptor (rCB2) (Rattus norvegicus, UniProt Q9QZN9); assay: cell-based; format: cell-based; conditions: for +/− RCB2: agonist or inverse agonist at rCB2
T1 sequence (Q9QZN9 1-360): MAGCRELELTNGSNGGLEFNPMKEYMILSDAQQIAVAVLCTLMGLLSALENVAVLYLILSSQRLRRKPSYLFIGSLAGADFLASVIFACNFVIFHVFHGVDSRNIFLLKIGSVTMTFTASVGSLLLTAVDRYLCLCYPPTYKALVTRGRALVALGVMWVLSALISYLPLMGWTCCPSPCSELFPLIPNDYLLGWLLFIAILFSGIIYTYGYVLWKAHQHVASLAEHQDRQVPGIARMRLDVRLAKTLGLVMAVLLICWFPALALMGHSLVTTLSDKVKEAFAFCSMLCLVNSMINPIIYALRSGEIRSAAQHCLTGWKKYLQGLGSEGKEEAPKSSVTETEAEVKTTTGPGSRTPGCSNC
Outline: as §1

Sequence of human CB1 receptor (hCB1) (P21554 whole entry): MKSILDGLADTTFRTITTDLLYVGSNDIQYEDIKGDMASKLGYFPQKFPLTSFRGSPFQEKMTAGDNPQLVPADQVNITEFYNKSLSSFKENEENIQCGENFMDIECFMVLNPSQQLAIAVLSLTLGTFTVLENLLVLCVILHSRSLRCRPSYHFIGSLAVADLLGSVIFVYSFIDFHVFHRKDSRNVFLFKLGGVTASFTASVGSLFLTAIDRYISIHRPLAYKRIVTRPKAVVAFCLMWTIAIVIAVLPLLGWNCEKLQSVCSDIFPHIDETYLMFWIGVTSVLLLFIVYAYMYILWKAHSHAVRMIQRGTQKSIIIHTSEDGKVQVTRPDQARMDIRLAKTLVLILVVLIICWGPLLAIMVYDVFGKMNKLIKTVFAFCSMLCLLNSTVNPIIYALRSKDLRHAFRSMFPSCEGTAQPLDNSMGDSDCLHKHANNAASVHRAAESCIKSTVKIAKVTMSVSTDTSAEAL

| Compound | EC50 [1] | +/− RCB2 [2] | EC50 [2] | +/− HCB1 [1] |
| --- | --- | --- | --- | --- |
| CNC(=O)[C@@H](NC(=O)c1nc(-c2ccccc2C(F)(F)F)n2c1CN(C)CC2)C(C)(C)C [Compound 255, (S)-N-(3,3-dimethyl-1-(methylamino)-1-oxobutan-2-yl)-7-methyl-3-(2-(trifluoromethyl)phenyl)-5,6,7,8-tetrahydroimidazo[1,5-a]pyrazine-1-carboxamide] | > 10 µM | + |  |  |
| CNC(=O)[C@@H](NC(=O)c1nc(C2=CCCCC2)n2c1CN(C)CC2)C(C)(C)C [Compound 256] | > 10 µM | + |  |  |
| CNC(=O)[C@@H](NC(=O)c1nc(C=C(C)C)n2c1CN(C)CC2)C(C)(C)C [Compound 257, (S)-N-(3,3-dimethyl-1-(methylamino)-1-oxobutan-2-yl)-7-methyl-3-(2-methylprop-1-enyl)-5,6,7,8-tetrahydroimidazo[1,5-a]pyrazine-1-carboxamide] | > 10 µM | + |  |  |
| CNC(=O)[C@@H](NC(=O)c1nc(-c2ccccc2F)n2c1CN(C)CC2)C(C)(C)C [Compound 258, (S)-N-(3,3-dimethyl-1-(methylamino)-1-oxobutan-2-yl)-3-(2-fluorophenyl)-7-methyl-5,6,7,8-tetrahydroimidazo[1,5-a]pyrazine-1-carboxamide] | > 10 µM |  | > 10 µM |  |
| CNC(=O)[C@@H](NC(=O)c1nc(-c2ccccc2C#N)n2c1CN(C)CC2)C(C)(C)C [Compound 259, (S)-3-(2-cyanophenyl)-N-(3,3-dimethyl-1-(methylamino)-1-oxobutan-2-yl)-7-methyl-5,6,7,8-tetrahydroimidazo[1,5-a]pyrazine-1-carboxamide] | > 10 µM |  | > 10 µM |  |
| CNC(=O)[C@@H](NC(=O)c1nc(-c2cccc(C#N)c2)n2c1CN(C)CC2)C(C)(C)C [Compound 260, (S)-3-(3-cyanophenyl)-N-(3,3-dimethyl-1-(methylamino)-1-oxobutan-2-yl)-7-methyl-5,6,7,8-tetrahydroimidazo[1,5-a]pyrazine-1-carboxamide] | > 10 µM | − |  |  |
| CNC(=O)[C@@H](NC(=O)c1nc(-c2cccc(F)c2F)n2c1CN(C)CC2)C(C)(C)C [Compound 261, (S)-3-(2,3-difluorophenyl)-N-(3,3-dimethyl-1-(methylamino)-1-oxobutan-2-yl)-7-methyl-5,6,7,8-tetrahydroimidazo[1,5-a]pyrazine-1-carboxamide] | > 10 µM | + |  |  |
| CNC(=O)[C@@H](NC(=O)c1nc(-c2cc(F)cc(F)c2)n2c1CN(C)CC2)C(C)(C)C [Compound 262, (S)-3-(3,5-difluorophenyl)-N-(3,3-dimethyl-1-(methylamino)-1-oxobutan-2-yl)-7-methyl-5,6,7,8-tetrahydroimidazo[1,5-a]pyrazine-1-carboxamide] | > 10 µM | + |  |  |
| CNC(=O)[C@@H](NC(=O)c1nc(/C=C/C(C)(C)C)n2c1CN(C)CC2)C(C)(C)C [Compound 263, (S,E)-N-(3,3-dimethyl-1-(methylamino)-1-oxobutan-2-yl)-3-(3,3-dimethylbut-1-enyl)-7-methyl-5,6,7,8-tetrahydroimidazo[1,5-a]pyrazine-1-carboxamide] | > 10 µM | + |  |  |
| CNC(=O)[C@@H](NC(=O)c1nc(/C=C/COC)n2c1CN(C)CC2)C(C)(C)C [Compound 264, (S,E)-N-(3,3-dimethyl-1-(methylamino)-1-oxobutan-2-yl)-3-(3-methoxyprop-1-enyl)-7-methyl-5,6,7,8-tetrahydroimidazo[1,5-a]pyrazine-1-carboxamide] | > 10 µM | + |  |  |
| CNC(=O)[C@@H](NC(=O)c1nc(-c2ccc(-c3ccccc3)cc2)n2c1CN(C)CC2)C(C)(C)C [Compound 265, (S)-3-(biphenyl-4-yl)-N-(3,3-dimethyl-1-(methylamino)-1-oxobutan-2-yl)-7-methyl-5,6,7,8-tetrahydroimidazo[1,5-a]pyrazine-1-carboxamide] | > 10 µM | − |  |  |
| C=Cc1nc(C(=O)N[C@H](C(=O)NC)C(C)(C)C)c2n1CCN(C)C2 [Compound 266, (S)-N-(3,3-dimethyl-1-(methylamino)-1-oxobutan-2-yl)-7-methyl-3-vinyl-5,6,7,8-tetrahydroimidazo[1,5-a]pyrazine-1-carboxamide] | > 10 µM | − |  |  |
| C=C(C)c1nc(C(=O)N[C@H](C(=O)NC)C(C)(C)C)c2n1CCN(C)C2 [Compound 267, (S)-N-(3,3-dimethyl-1-(methylamino)-1-oxobutan-2-yl)-7-methyl-3-(prop-1-en-2-yl)-5,6,7,8-tetrahydroimidazo[1,5-a]pyrazine-1-carboxamide] | > 10 µM | + |  |  |
| CCC/C=C/c1nc(C(=O)N[C@H](C(=O)NC)C(C)(C)C)c2n1CCN(C)C2 [Compound 268, (S,E)-N-(3,3-dimethyl-1-(methylamino)-1-oxobutan-2-yl)-7-methyl-3-(pent-1-enyl)-5,6,7,8-tetrahydroimidazo[1,5-a]pyrazine-1-carboxamide] |  |  | > 10 µM | + |
| CNC(=O)[C@@H](NC(=O)c1nc(C2CC2)n2c1CN(C)CC2)C(C)(C)C [Compound 269, (S)-3-cyclopropyl-N-(3,3-dimethyl-1-(methylamino)-1-oxobutan-2-yl)-7-methyl-5,6,7,8-tetrahydroimidazo[1,5-a]pyrazine-1-carboxamide] |  | + |  | + |
| CNC(=O)[C@@H](NC(=O)c1nc(C2=CCC(C)CC2)n2c1CN(C)CC2)C(C)(C)C (stereo partly drawn) [Compound 270, N-((S)-3,3-dimethyl-1-(methylamino)-1-oxobutan-2-yl)-7-methyl-3-(4-methylcyclohex-1-enyl)-5,6,7,8-tetrahydroimidazo[1,5-a]pyrazine-1-carboxamide] | > 10 µM | − |  |  |
| CNC(=O)[C@@H](NC(=O)c1nc(C2=CCC(C(C)(C)C)CC2)n2c1CN(C)CC2)C(C)(C)C (stereo partly drawn) [Compound 271, 3-(4-tert-butylcyclohex-1-enyl)-N-((S)-3,3-dimethyl-1-(methylamino)-1-oxobutan-2-yl)-7-methyl-5,6,7,8-tetrahydroimidazo[1,5-a]pyrazine-1-carboxamide] |  | + |  | + |
| CNC(=O)[C@@H](NC(=O)c1nc(C2=CCCCCC2)n2c1CN(C)CC2)C(C)(C)C [Compound 272, (S,E)-3-cycloheptenyl-N-(3,3-dimethyl-1-(methylamino)-1-oxobutan-2-yl)-7-methyl-5,6,7,8-tetrahydroimidazo[1,5-a]pyrazine-1-carboxamide] |  | + |  | + |
| CNC(=O)[C@@H](NC(=O)c1nc(/C=C/C2CC2)n2c1CN(C)CC2)C(C)(C)C [Compound 273, (S,E)-3-(2-cyclopropylvinyl)-N-(3,3-dimethyl-1-(methylamino)-1-oxobutan-2-yl)-7-methyl-5,6,7,8-tetrahydroimidazo[1,5-a]pyrazine-1-carboxamide] | > 10 µM |  | > 10 µM |  |
| CNC(=O)[C@@H](NC(=O)c1nc(C2=CCNCC2)n2c1CN(C)CC2)C(C)(C)C [Compound 274, (S)-N-(3,3-dimethyl-1-(methylamino)-1-oxobutan-2-yl)-7-methyl-3-(1,2,3,6-tetrahydropyridin-4-yl)-5,6,7,8-tetrahydroimidazo[1,5-a]pyrazine-1-carboxamide] |  | − |  | + |
| CNC(=O)[C@H](CC(C)C)NC(=O)c1nc(-c2ccccc2)n2c1CN(C)CC2 [Compound 275, (S)-7-methyl-N-(4-methyl-1-(methylamino)-1-oxopentan-2-yl)-3-phenyl-5,6,7,8-tetrahydroimidazo[1,5-a]pyrazine-1-carboxamide] | > 10 µM | + |  |  |
| CNC(=O)[C@H](CC(C)C)NC(=O)c1nc(-c2ccc(Cl)cc2F)n2c1CN(C)CC2 [Compound 276, (S)-3-(4-chloro-2-fluorophenyl)-7-methyl-N-(4-methyl-1-(methylamino)-1-oxopentan-2-yl)-5,6,7,8-tetrahydroimidazo[1,5-a]pyrazine-1-carboxamide] | > 10 µM | − |  |  |
| CNC(=O)[C@H](CC(C)C)NC(=O)c1nc(-c2ccc(Cl)c(F)c2)n2c1CN(C)CC2 [Compound 277, (S)-3-(4-chloro-3-fluorophenyl)-7-methyl-N-(4-methyl-1-(methylamino)-1-oxopentan-2-yl)-5,6,7,8-tetrahydroimidazo[1,5-a]pyrazine-1-carboxamide] | > 10 µM | − |  |  |
| CNC(=O)[C@H](CC(C)C)NC(=O)c1nc(-c2ccc(F)c(F)c2)n2c1CN(C)CC2 [Compound 278, (S)-3-(3,4-difluorophenyl)-7-methyl-N-(4-methyl-1-(methylamino)-1-oxopentan-2-yl)-5,6,7,8-tetrahydroimidazo[1,5-a]pyrazine-1-carboxamide] | > 10 µM | + |  |  |
| CNC(=O)[C@H](CC(C)C)NC(=O)c1nc(C2=CCCC2)n2c1CN(C)CC2 [Compound 279, (S)-3-cyclopentenyl-7-methyl-N-(4-methyl-1-(methylamino)-1-oxopentan-2-yl)-5,6,7,8-tetrahydroimidazo[1,5-a]pyrazine-1-carboxamide] |  | + |  | + |
| CNC(=O)[C@H](CC(C)C)NC(=O)c1nc(C2=CCCCO2)n2c1CN(C)CC2 [Compound 280, (S)-3-(3,4-dihydro-2H-pyran-6-yl)-7-methyl-N-(4-methyl-1-(methylamino)-1-oxopentan-2-yl)-5,6,7,8-tetrahydroimidazo[1,5-a]pyrazine-1-carboxamide] | > 10 µM | + |  |  |
